{"source": "patent US20060292213A1", "about": "“Enoximone formulations and their use in the treatment of PDE-III mediated diseases” (Myogen, Inc., priority 2004, published 2006)", "key": {"[1]": {"system": "patients with primary thrombocythemia and thrombocytosis", "details": "used to lower platelet counts; cited from earlier work"}, "PDE-III": {"system": "PDE-III", "details": "cited from earlier work"}, "men who suffer from ED": {"system": "men who suffer from ED", "details": "ED of psychogenic or organic etiology; cited from earlier work"}, "[2]": {"system": "human platelet aggregation", "test": "Human platelet aggregation in platelet rich plasma, aggregometer (Example 8)", "assay_type": "cell-based", "details": "5 min, PRP incubated 5 minutes at room temperature", "description": "Substances which increase platelet cAMP levels are known to inhibit platelet aggregation. Blood was taken from human donors not on aspirin or taking any aspirin-containing substances (or other nonsteroidal anti-inflammatory drugs) for at least two weeks prior to donation. […] PRP was exposed only to plastic laboratory ware. All experiments were completed within 3 hours. PRP was incubated for 5 minutes at room temperature with enoximone prior to the addition of any aggregating agent. Aggregation was monitored by continuous recording of light transmittance in a Chrono-log dual-channel aggregometer (Chrono-log Corp.) in atotal volume of 0.5 ml PRP. Aggregating substances used were ADP (5 μM), collagen […] and arachidonic acid (2 μg/ml) (Chrono-log Corp.). Enoximone ([…]) inhibited platelet aggregation in a concentration dependent manner. […] It was also ruled out that enoximone was inhibiting aggregation by somehow inhibiting the metabolism of arachidonic acid as measured by HPLC and RIA."}, "[3]": {"system": "spontaneously hypertensive rats", "test": "Anti-hypertensive activity, spontaneously hypertensive rats, single dose (Example 2)", "assay_type": "in vivo, rat", "details": "for blood pressure (mean arterial): vehicle 169+/−7.9", "description": "Spontaneously hypertensive rats were divided into groups and treated with vehicle or a single dose of 10, 30 or 100 mg/kg of enoximone. Mean arterial blood pressure and heart rate were recorded before and at 15, 30, 45 and 60 minutes after treatment. Blood pressure decreased in all drug treatment groups."}, "[4]": {"system": "subjects displaying chronic stable angina", "test": "Double blind placebo controlled cross over trial in chronic stable angina (Example 7)", "assay_type": "in vivo, human", "details": "single oral dose 75 mg", "description": "A double blind placebo controlled cross over trial of enoximone was done with 20 subjects displaying chronic stable angina. Enoximone as a single oral dose (75 mg) was compared with placebo."}, "Mongrel dogs": {"system": "Mongrel dogs", "test": "Coronary blood flow, anesthetized mongrel dogs, electromagnetic flow probe (Example 5)", "assay_type": "in vivo, dog", "description": "Mongrel dogs were anesthetized and given bolus injections of enoximone and coronary blood flow was measured using a Stratham electromagnetic flow probe, Model SP-7516-606-214, placed around the circumflex branch of the left coronary artery near its origin. The flow probe was connected to a Stratham Model SP2202 electromagnetic flow meter which was connected to a Grass Model 7P1 low level DC preamplifier. All recordings were made on a Grass Model 7B or […] polygraph."}, "perfused hindlimb": {"system": "perfused hindlimb", "test": "Arteriolar resistance, pump perfused hindlimb preparation (Example 6)", "assay_type": "in vivo, dog", "excerpt": "The pump perfused hindlimb preparation permits the in vivo determination of the direct vascular effects of a compound. Dogs were anesthetized and allowed to respire sponatenously. The branchial artery and vein were cannulated and a catheter was passed down the left carotid artery into the left ventricle. […]"}, "normal human volunteers": {"system": "normal human volunteers", "test": "Renal function and plasma volume in normal human volunteers (Example 4)", "details": "single I.V. dose 2.5 mg/kg, then 200 mg t.i.d. for 5 days"}, "[5]": {"system": "spontaneously hypertensive rats", "test": "Anti-hypertensive activity, cannulated conscious female spontaneously hypertensive rats (Example 1)", "assay_type": "in vivo, rat", "details": "45 and 60 minute time points, 100 mg/kg and 30 mg/kg groups; statistically significant", "description": "Female spontaneously hypertensive rats were anesthetized and cannulated. The end of the cannula was exteriorized through the skin for measurement of arterial blood pressure. Approximately 30 minutes after the rats regained consciousness, the experiment began. Mean blood pressure and heart rate were recorded 15 minutes prior to drug administration, at the time of administration, and 15, 30, 45 and 60 minutes following administration. Drug was administered at a variety of dosages. A statistically significant decrease in blood pressure of ˜42% was measured at the 45 and 60 minute time points for the 100 mg/kg and 30 mg/kg groups."}, "anesthetized dogs": {"system": "anesthetized dogs", "test": "Cardiorenal hemodynamics, i.v. infusion in anesthetized dogs (Example 3)", "assay_type": "in vivo, dog"}}, "note": "Read-outs that look alike come from different tables or passages of the source."}
{"molecule": "interferon-α", "values": [{"measurement": "patients achieving a stable state of remission", "setting": "[1]", "value": "approximately 50%"}]}
{"molecule": "CCCc1nn(C)c2c(=O)[nH]c(-c3cc(S(=O)(=O)N4CCN(C)CC4)ccc3OCC)nc12", "note": "[Sildenafil, 5-[2-ethoxy-5-(4-methylpiperazin-1-ylsulphonyl)phenyl]-1-methyl-3-n-propyl-6,7-dihydro-1H-pyrazolo[4,3-d]pyrimidin-7-one]", "values": [{"measurement": "inhibition of PDE-III", "setting": "PDE-III", "value": "negligible inhibition"}, {"measurement": "men with improved sexual function", "setting": "men who suffer from ED", "value": "about 70%"}]}
{"molecule": "CSc1ccc(C(=O)c2[nH]c(=O)[nH]c2C)cc1", "note": "[Enoximone, 1,3-Dihydro-4-methyl-5-[4-(methylthio)benzoyl]-2H-imidazol-2-one]", "values": [{"measurement": "IC50", "setting": "[2]; ADP (5 μM), read-out: IC50 for ADP induced aggregation", "value": 20.9, "unit": "µg/mL"}, {"measurement": "IC50", "setting": "[2]; arachidonic acid (2 μg/ml), read-out: IC50 for arachidonic acid induced aggregation", "value": 0.24, "unit": "µg/mL"}, {"measurement": "IC50", "setting": "[2]; collagen (1.0 mM), read-out: IC50 for collagen induced aggregation", "value": 36.3, "unit": "µg/mL"}, {"measurement": "blood pressure (mean arterial)", "setting": "[3]; 45 minutes, 30 mg/kg, non-significant", "value": "151+/−9"}, {"measurement": "blood pressure (mean arterial)", "setting": "[3]; 60 minutes, 30 mg/kg, non-significant", "value": "142+/−8"}, {"measurement": "blood pressure (mean arterial)", "setting": "[3]; 60 minutes, 100 mg/kg, significant", "value": "100+/−9.7"}, {"measurement": "blood pressure, change in words", "setting": "[3]; all drug treatment groups (10, 30 or 100 mg/kg)", "value": "decreased"}, {"measurement": "heart rates", "setting": "[3]; all groups (10, 30 or 100 mg/kg)", "value": "unchanged"}, {"measurement": "total exercise duration, mean difference versus placebo", "setting": "[4]; significantly longer than placebo", "value": 22.8, "unit": "s"}, {"measurement": "time to onset of angina and development of significant ST-segment decrease, versus placebo", "setting": "[4]; trends in favor of enoximone", "value": "similar"}, {"measurement": "increase in coronary blood flow", "setting": "Mongrel dogs; bolus injection 0.1 mg/kg", "value": "12+/−2%"}, {"measurement": "increase in coronary blood flow", "setting": "Mongrel dogs; bolus injection 1 mg/kg", "value": "41+/−6%"}, {"measurement": "decrease in hind limb perfusion pressure", "setting": "perfused hindlimb; 0.3 mg/kg", "value": "11+/−2%"}, {"measurement": "decrease in hind limb perfusion pressure", "setting": "perfused hindlimb; 3 mg/kg", "value": "25+/−2%"}, {"measurement": "renal function", "setting": "normal human volunteers", "value": "no impairment"}, {"measurement": "decrease in blood pressure", "setting": "[5]", "value": "~42", "unit": "%"}, {"measurement": "blood pressure", "setting": "anesthetized dogs; 30 μg/kg/min i.v. infusion", "value": "decreasing"}, {"measurement": "cardiac contractile force", "setting": "anesthetized dogs; 30 μg/kg/min i.v. infusion", "value": "increasing"}, {"measurement": "glomerular filtration", "setting": "anesthetized dogs; 100 μg/kg/min i.v. infusion", "value": "unchanged"}, {"measurement": "increase in renal blood flow", "setting": "anesthetized dogs; 100 μg/kg/min i.v. infusion", "value": "15-20%"}, {"measurement": "renal vascular resistance", "setting": "anesthetized dogs; 100 μg/kg/min i.v. infusion", "value": "measurable decreases"}]}
